From ChEMBL document CHEMBL5715954, “Silencing c-Myc translation as a therapeutic strategy through targeting PI3Kδ and CK1ε in hematological malignancies” (Blood, 2017)

Key:
Design in all cases: scale not given: the % may be the effect or the level left
[1] = biological target: Casein kinase I isoform epsilon (Homo sapiens, UniProt P49674); experiment: Inhibition of human CK1epsilon assessed as enzyme activity at 1 uM using KRRRAL[pS]VASLPGL as substrate preincubated for 20 mins followed by [gamma-33P]-ATP addition and measured after 120 mins by radiometric Hot-SpotSM Kinase assay relative to control
Casein kinase I isoform epsilon, sequence (P49674 whole entry, looked up, canonical isoform): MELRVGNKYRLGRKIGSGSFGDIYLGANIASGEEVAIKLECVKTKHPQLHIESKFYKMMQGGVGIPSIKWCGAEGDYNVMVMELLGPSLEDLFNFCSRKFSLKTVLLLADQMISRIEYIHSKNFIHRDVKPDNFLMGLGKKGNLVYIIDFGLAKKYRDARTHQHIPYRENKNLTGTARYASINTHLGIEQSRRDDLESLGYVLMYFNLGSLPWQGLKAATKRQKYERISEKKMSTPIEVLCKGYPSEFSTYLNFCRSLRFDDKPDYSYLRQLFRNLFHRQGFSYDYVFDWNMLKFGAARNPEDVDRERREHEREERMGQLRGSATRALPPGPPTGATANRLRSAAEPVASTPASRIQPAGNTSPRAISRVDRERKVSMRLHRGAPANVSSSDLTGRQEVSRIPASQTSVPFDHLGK

[2] = biological target: G protein-coupled receptor kinase 5 (Homo sapiens) (UniProt P34947); experiment: Inhibition of human GRK5 assessed as enzyme activity at 1 uM using casein as substrate preincubated for 20 mins followed by [gamma-33P]-ATP addition and measured after 120 mins by radiometric Hot-SpotSM Kinase assay relative to control
G protein-coupled receptor kinase 5 (Homo sapiens), sequence (P34947 whole entry, looked up): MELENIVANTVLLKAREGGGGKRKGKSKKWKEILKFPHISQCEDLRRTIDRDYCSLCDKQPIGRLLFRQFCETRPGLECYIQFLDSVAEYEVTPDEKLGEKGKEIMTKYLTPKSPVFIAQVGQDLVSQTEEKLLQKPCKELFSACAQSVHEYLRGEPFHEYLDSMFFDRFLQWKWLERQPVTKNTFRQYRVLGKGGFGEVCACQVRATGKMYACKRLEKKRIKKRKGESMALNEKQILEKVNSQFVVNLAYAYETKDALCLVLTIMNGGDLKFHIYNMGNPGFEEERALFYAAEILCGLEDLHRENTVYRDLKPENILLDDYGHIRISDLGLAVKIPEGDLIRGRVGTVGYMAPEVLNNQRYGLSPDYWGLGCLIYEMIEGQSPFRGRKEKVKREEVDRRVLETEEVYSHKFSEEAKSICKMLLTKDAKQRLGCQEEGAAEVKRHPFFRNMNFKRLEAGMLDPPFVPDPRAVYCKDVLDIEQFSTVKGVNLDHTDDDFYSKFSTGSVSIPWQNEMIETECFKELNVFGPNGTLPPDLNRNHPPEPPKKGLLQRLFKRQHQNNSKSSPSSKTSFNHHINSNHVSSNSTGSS

[3] = biological target: Glycogen synthase kinase-3 beta (Homo sapiens) (UniProt P49841); experiment: Inhibition of human GSK3b assessed as enzyme activity at 1 uM using YRRAAVPPSPSLSRHSSPHQ(pS)EDEEE as substrate preincubated for 20 mins followed by [gamma-33P]-ATP addition and measured after 120 mins by radiometric Hot-SpotSM Kinase assay relative to control
Glycogen synthase kinase-3 beta (Homo sapiens), sequence (P49841 whole entry, looked up): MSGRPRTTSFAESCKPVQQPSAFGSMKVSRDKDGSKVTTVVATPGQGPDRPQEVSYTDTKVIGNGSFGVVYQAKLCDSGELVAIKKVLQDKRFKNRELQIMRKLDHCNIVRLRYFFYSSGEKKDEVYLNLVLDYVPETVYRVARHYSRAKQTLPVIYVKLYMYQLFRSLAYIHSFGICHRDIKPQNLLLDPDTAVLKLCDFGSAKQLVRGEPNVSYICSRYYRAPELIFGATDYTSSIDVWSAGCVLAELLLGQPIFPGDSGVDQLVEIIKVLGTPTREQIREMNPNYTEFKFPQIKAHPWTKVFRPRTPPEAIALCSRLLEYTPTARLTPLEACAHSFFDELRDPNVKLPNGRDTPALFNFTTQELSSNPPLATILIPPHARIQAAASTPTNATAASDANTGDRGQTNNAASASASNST

[4] = biological target: Serine/threonine-protein kinase 10 (Homo sapiens) (UniProt O94804); experiment: Inhibition of human LOK/STK10 assessed as enzyme activity at 1 uM using RLGRDKYKTLRQIRQ as substrate preincubated for 20 mins followed by [gamma-33P]-ATP addition and measured after 120 mins by radiometric Hot-SpotSM Kinase assay relative to control
Serine/threonine-protein kinase 10 (Homo sapiens), sequence (O94804 whole entry, looked up): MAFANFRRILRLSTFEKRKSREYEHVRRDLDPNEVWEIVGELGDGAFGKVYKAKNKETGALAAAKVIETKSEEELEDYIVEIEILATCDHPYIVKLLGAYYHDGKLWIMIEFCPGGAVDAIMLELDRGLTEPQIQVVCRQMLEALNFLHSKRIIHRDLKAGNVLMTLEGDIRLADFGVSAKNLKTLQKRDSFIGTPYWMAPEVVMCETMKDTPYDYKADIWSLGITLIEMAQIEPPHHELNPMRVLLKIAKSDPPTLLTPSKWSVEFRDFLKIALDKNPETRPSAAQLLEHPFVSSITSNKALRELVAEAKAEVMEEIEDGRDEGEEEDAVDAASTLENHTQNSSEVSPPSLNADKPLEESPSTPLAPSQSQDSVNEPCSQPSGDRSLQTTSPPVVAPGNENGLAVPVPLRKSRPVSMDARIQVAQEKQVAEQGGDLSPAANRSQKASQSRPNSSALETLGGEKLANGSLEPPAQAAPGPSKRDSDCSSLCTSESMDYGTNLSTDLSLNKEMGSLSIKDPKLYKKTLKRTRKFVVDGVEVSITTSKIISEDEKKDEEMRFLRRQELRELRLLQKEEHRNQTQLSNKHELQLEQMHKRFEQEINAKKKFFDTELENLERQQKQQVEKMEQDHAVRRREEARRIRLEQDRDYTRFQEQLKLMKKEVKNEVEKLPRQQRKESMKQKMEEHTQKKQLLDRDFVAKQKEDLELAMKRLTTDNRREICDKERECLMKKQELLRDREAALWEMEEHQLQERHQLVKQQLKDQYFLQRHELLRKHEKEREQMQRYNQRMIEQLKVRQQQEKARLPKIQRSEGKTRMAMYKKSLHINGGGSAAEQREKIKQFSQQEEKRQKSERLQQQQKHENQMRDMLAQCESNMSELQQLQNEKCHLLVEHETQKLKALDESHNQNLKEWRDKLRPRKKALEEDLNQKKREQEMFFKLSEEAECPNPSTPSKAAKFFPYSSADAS

[5] = biological target: T1, Serine/threonine-protein kinase MAK (Homo sapiens) (UniProt P20794); experiment: Inhibition of human MAK assessed as enzyme activity at 1 uM using myelin basic protein as substrate preincubated for 20 mins followed by [gamma-33P]-ATP addition and measured after 120 mins by radiometric Hot-SpotSM Kinase assay relative to control
T1 sequence (whole entry): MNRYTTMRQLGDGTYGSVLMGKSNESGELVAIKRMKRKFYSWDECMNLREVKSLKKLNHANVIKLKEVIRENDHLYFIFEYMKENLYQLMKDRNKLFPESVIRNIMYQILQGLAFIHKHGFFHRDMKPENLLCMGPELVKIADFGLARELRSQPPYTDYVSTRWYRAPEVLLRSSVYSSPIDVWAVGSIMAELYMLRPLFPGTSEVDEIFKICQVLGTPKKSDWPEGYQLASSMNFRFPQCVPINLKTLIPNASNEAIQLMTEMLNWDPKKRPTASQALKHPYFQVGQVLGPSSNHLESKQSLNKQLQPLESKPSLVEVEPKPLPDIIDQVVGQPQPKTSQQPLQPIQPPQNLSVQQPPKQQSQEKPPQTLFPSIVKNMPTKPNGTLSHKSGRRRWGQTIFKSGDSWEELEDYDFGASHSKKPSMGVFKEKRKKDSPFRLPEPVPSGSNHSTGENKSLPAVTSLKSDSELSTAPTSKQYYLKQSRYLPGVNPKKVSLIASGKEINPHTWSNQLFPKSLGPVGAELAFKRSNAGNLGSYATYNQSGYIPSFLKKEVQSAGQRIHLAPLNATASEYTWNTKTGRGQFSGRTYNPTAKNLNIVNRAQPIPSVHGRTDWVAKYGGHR

[6] = biological target: Myosin light chain kinase, smooth muscle (Homo sapiens) (UniProt Q15746); experiment: Inhibition of human MLCK assessed as enzyme activity at 1 uM using KKLNRTLSFAEPG as substrate preincubated for 20 mins followed by [gamma-33P]-ATP addition and measured after 120 mins by radiometric Hot-SpotSM Kinase assay relative to control
Myosin light chain kinase, smooth muscle (Homo sapiens), sequence (Q15746 whole entry): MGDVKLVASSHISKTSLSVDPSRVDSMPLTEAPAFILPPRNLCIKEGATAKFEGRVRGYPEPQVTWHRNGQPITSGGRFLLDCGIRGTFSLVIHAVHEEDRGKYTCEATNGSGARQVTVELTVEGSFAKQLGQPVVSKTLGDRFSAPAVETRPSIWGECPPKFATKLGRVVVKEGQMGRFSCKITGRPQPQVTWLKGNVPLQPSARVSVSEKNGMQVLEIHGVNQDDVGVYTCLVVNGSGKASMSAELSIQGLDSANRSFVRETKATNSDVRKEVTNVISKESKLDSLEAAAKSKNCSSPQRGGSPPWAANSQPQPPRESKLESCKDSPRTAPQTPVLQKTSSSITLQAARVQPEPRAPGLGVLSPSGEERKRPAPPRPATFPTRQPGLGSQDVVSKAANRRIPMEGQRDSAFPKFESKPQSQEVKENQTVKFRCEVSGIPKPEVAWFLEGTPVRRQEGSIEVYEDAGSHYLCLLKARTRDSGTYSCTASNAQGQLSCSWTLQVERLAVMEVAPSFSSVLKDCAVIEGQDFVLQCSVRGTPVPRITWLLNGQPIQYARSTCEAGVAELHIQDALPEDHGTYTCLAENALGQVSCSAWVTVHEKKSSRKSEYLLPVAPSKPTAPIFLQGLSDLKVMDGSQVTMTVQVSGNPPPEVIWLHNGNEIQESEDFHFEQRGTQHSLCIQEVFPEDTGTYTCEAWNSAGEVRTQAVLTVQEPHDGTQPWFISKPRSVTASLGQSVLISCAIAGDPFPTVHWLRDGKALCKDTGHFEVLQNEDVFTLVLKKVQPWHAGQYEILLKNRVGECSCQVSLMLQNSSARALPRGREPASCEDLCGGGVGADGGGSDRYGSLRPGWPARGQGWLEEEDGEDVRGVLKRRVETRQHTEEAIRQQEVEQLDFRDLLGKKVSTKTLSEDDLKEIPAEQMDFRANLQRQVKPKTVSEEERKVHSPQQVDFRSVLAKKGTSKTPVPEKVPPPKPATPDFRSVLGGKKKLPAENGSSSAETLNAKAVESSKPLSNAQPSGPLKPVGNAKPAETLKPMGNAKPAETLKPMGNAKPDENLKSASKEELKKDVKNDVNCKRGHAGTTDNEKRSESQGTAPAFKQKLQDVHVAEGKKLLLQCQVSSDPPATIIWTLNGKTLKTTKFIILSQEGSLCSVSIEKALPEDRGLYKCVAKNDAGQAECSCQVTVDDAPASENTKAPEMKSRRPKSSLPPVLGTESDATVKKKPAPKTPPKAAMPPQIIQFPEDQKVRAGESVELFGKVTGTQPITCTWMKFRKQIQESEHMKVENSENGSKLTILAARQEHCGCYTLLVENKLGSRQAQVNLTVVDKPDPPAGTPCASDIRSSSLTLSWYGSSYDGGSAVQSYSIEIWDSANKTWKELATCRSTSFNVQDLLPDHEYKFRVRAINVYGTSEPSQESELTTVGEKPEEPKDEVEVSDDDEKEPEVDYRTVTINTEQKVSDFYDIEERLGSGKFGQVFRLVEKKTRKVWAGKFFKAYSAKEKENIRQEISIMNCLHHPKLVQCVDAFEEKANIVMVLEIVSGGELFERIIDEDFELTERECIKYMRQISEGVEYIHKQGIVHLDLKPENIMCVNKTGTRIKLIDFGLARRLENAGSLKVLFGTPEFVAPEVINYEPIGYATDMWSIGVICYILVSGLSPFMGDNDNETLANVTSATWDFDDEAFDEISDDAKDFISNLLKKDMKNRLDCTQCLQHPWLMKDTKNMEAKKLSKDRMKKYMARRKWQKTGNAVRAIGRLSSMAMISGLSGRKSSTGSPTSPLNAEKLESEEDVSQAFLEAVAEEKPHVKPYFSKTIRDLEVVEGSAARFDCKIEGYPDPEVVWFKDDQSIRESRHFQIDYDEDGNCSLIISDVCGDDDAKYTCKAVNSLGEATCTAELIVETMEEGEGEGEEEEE

[7] = biological target: T2, Serine/threonine-protein kinase 4 (Homo sapiens) (UniProt Q13043); experiment: Inhibition of human MST1 assessed as enzyme activity at 1 uM using KKSRGDYMTMQIG as substrate preincubated for 20 mins followed by [gamma-33P]-ATP addition and measured after 120 mins by radiometric Hot-SpotSM Kinase assay relative to control
T2 sequence (whole entry): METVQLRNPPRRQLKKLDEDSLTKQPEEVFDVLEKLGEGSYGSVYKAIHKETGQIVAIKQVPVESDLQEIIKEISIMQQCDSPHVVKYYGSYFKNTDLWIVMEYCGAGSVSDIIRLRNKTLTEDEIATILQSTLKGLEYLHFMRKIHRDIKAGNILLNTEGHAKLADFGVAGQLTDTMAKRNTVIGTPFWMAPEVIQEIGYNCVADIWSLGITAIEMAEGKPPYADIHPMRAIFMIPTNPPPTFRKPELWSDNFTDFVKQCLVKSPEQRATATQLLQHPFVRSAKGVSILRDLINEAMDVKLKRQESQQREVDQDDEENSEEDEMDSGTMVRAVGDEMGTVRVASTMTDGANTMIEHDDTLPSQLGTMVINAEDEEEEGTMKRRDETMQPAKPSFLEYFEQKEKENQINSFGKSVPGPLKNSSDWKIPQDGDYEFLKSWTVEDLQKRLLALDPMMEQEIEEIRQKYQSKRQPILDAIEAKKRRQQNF

[8] = biological target: Protein kinase C gamma type (Homo sapiens) (UniProt P05129); experiment: Inhibition of human PKCg assessed as enzyme activity at 1 uM using ERMRPRKRQGSVRRRV as substrate preincubated for 20 mins followed by [gamma-33P]-ATP addition and measured after 120 mins by radiometric Hot-SpotSM Kinase assay relative to control
[9] = biological target: Angiopoietin-1 receptor (Homo sapiens) (UniProt Q02763); experiment: Inhibition of human TIE2 assessed as enzyme activity at 1 uM using poly[Glu:Tyr] (4:1) as substrate preincubated for 20 mins followed by [gamma-33P]-ATP addition and measured after 120 mins by radiometric Hot-SpotSM Kinase assay relative to control

How did the Activity [1] turn out when `C[C@H](Nc1ncnc2nc[nH]c12)c1cc2cccc(Cl)c2c(=O)n1-c1ccccc1` was run?
The Activity was 90.9%.

And the Activity [2]?
Its Activity is 106%.

And the Activity [3]?
The Activity was 113%.

What about the Activity [4] of the same molecule?
Its Activity is 94.4%.

And the Activity [5]?
The Activity was 98.5%.

What about the Activity [6] of the same molecule?
The Activity was 91.7%.

What about the Activity [7] of the same molecule?
The Activity was 94.1%.

What about the Activity [8] of the same molecule?
The Activity was 97.3%.

What about the Activity [9] of the same molecule?
Its Activity is 97.3%.

With `CC[C@H](Nc1ncnc2[nH]cnc12)c1nc2cccc(F)c2c(=O)n1-c1ccccc1` as the molecule, how does the Activity [1] read?
Its Activity is 92.9%.

And the Activity [2]?
The Activity was 104%.

And the Activity [3]?
The Activity was 114%.

What about the Activity [4] of the same molecule?
The Activity was 94.4%.

What about the Activity [5] of the same molecule?
The Activity was 92.5%.

And the Activity [6]?
The Activity was 96.1%.

And the Activity [7]?
The Activity was 89.8%.

What about the Activity [8] of the same molecule?
The Activity was 96%.

And the Activity [9]?
Its Activity is 97.9%.

`CC(C)Oc1ccc(-c2nn([C@@H](C)c3oc4ccc(F)cc4c(=O)c3-c3cccc(F)c3)c3ncnc(N)c23)cc1F` [UMBRALISIB] was tested. Which Activity [1] did it give?
Its Activity is 39.9%.

And the Activity [2]?
Its Activity is 111%.

And the Activity [3]?
The Activity was 111%.

And the Activity [4]?
Its Activity is 99%.

What about the Activity [5] of the same molecule?
The Activity was 96.5%.

What about the Activity [6] of the same molecule?
The Activity was 92.4%.

What about the Activity [7] of the same molecule?
Its Activity is 95.1%.

And the Activity [8]?
The Activity was 99.8%.

And the Activity [9]?
The Activity was 92%.
